Results on ten compounds are retold here after ChEMBL document CHEMBL1201862, “PubChem BioAssay data set” (2004).

Structures are written as SMILES.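 Exposure lasted 48 hours, with cells grown in 96-well plates and compounds tested at five concentrations. GI50 is the concentration that inhibits growth by half.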 Activity calls are given as the source filed them. No stated cut-off is given here; in the data, active = GI50 up to about 1.1 µM and inactive = higher.

Test systems include HOP-62; SNB-19; DMS-273; RXF 393; TK-10; HCC 2998; U-251; ACHN; HCT-15; DMS-114; DLD-1; SF-295; IGROV-1; SF-268; SK-MEL-2; OVCAR-3; K562; KM-20L2; MCF7.
Common to all, as to test: NCI tumour cell line growth inhibition, 48 h

Turning to `CN(C)CCNC(=O)c1cccc2c1nc(-c1cccnc1)c1ccccc12`, the GI50 with HOP-62 is 6.24 µM (inactive); in the test with SNB-19, 7.05 µM (inactive); with DMS-273 it was 3.02 µM (inactive); in the test with RXF 393, 4.71 µM (inactive); with TK-10, 2.25 µM (inactive); with HCC 2998 it was 6.9 µM (inactive). Moreover, the GI50 in the test with U-251 was 3.75 µM (inactive); in the test on ACHN, 2.58 µM (inactive); with HCT-15 it was 3.74 µM; in the test on DMS-114, 4.91 µM (inactive); with DLD-1, 4.1 µM (inactive); with SF-295 it was 4.72 µM (inactive). Besides, the GI50 was 1.73 µM (inactive) in the test on IGROV-1; 6.05 µM (inactive) in the test on SF-268; 10.6 µM (inactive) with SK-MEL-2; 10.1 µM (inactive) in the test on OVCAR-3; 5.98 µM (inactive) in the test on K562.

Consider `C/C(=N/NC(=O)c1ccccc1S(N)(=O)=O)C(CN1CCCCC1)C(C1=C(O)C2C=CC=CC2OC1=O)c1ccccc1` (centres undefined), for which the GI50 is > 100 µM (inactive) with HOP-62; 87.7 µM (inactive) in the test with SNB-19; 28.4 µM (inactive) in the test on RXF 393; > 100 µM (inactive) in the test with TK-10; > 100 µM (inactive) in the test on KM-20L2; 89.1 µM (inactive) with U-251. The GI50 is 61.7 µM (inactive) in the test on ACHN; 49.9 µM with HCT-15; > 100 µM (inactive) with DLD-1; 57.8 µM (inactive) in the test with SF-295; > 100 µM (inactive) with IGROV-1; 58.5 µM (inactive) in the test with SF-268. For the same compound, the GI50 in the test on SK-MEL-2 was 59.2 µM (inactive); in the test with OVCAR-3 it was 41.6 µM (inactive); in the test on K562, 43.6 µM (inactive).

`O=C1NC2CCCCCC2C12CCCCC2` (centres undefined): the GI50 in the test on HOP-62, with SNB-19, with RXF 393, in the test with TK-10, in the test with KM-20L2 and with HCC 2998 was > 100 µM (inactive) each time. Moreover, the GI50 is > 100 µM (inactive) in the test on U-251; > 100 µM (inactive) in the test on ACHN; more than 100 µM with HCT-15; > 100 µM (inactive) in the test with DMS-114; > 100 µM (inactive) in the test with DLD-1; > 100 µM (inactive) in the test with SF-295. For the same compound, the GI50 in the test on IGROV-1, in the test on SF-268, in the test on OVCAR-3 and in the test on K562 was > 100 µM (inactive) in each case.

Turning to `Cn1c2ccccc2c2ccc3c(c21)C(=O)C(c1ccccc1)=CC3=O`, the GI50 in the test with HOP-62 was 13.4 µM (inactive); in the test with SNB-19 it was 42.5 µM (inactive); in the test with DMS-273 it was 21.5 µM (inactive); in the test with TK-10, 43.8 µM (inactive); in the test with HCC 2998 it was 24.5 µM (inactive); with U-251 it was 36.8 µM (inactive). The GI50 in the test on ACHN was 54.2 µM (inactive); in the test on HCT-15 it was 7.03 µM; in the test on DMS-114 it was 17.9 µM (inactive); in the test on DLD-1 it was 17.9 µM (inactive); in the test on SF-295, 61.4 µM (inactive); with IGROV-1, 13.4 µM (inactive). In addition, the GI50 is 36 µM (inactive) in the test on SF-268, 22 µM (inactive) with SK-MEL-2, 23.7 µM (inactive) with OVCAR-3 and 4.75 µM (inactive) in the test on K562.

With `N#C/C(=C/c1ccco1)C(=O)c1ccccc1`, the GI50 in the test on TK-10 is > 100 µM (inactive); in the test on HCC 2998, > 100 µM (inactive); in the test on U-251, > 100 µM (inactive); with ACHN it was > 100 µM (inactive); in the test on HCT-15 it was more than 100 µM; in the test with DMS-114, > 100 µM (inactive). In addition, the GI50 in the test on DLD-1, with SF-295, in the test with IGROV-1, with SF-268, in the test with SK-MEL-2 and in the test with K562 was > 100 µM (inactive) each time.

As to `COc1ccc(Br)c(CN2CCc3ccccc32)c1OS(=O)(=O)c1ccc(C)cc1`, the GI50 was 42.5 µM (inactive) in the test with SNB-19; 8.67 µM (inactive) in the test with RXF 393; 8.02 µM (inactive) in the test on TK-10; 6.31 µM (inactive) with HCC 2998; 14.7 µM (inactive) in the test on ACHN; 25.1 µM with HCT-15. Moreover, the GI50 with DMS-114 is 18.3 µM (inactive); with DLD-1, 15.3 µM (inactive); with SF-295, 19.5 µM (inactive); in the test with SF-268 it was 23.7 µM (inactive); in the test with SK-MEL-2, 21.8 µM (inactive); in the test with OVCAR-3, 5.07 µM (inactive). For the same compound, in the test with K562, the GI50 is 4.75 µM (inactive).

With `COC(C(O)c1ccc2c(c1)OCO2)P(=O)(c1ccccc1)c1ccccc1` (centres undefined), the GI50 with HOP-62 was > 100 µM (inactive); in the test with SNB-19, > 100 µM (inactive); in the test with DMS-273, > 100 µM (inactive); in the test with RXF 393, 81.7 µM (inactive); with TK-10, > 100 µM (inactive); in the test with U-251, > 100 µM (inactive). The GI50 in the test with ACHN is > 100 µM (inactive); in the test on DMS-114, 77.3 µM (inactive); in the test with DLD-1 it was 88.7 µM (inactive); in the test with SF-295 it was > 10 µM (inactive); in the test with IGROV-1 it was > 100 µM (inactive); in the test on SF-268, > 100 µM (inactive). The GI50 was > 100 µM (inactive) in the test on SK-MEL-2, 15.1 µM (inactive) with OVCAR-3 and 60.3 µM (inactive) in the test with K562.

As for `c1ccc(N/N=C2\NN=C(c3ccccc3)CS2)cc1`, the GI50 in the test with HOP-62 was 22.3 µM (inactive); with SNB-19, 19.3 µM (inactive); in the test on RXF 393 it was 7.8 µM (inactive); in the test on TK-10 it was 11.5 µM (inactive); in the test with KM-20L2, 6.46 µM (inactive); in the test with HCC 2998, 4.74 µM (inactive). The GI50 with U-251 is > 10 µM (inactive); with ACHN, 4.38 µM (inactive); in the test on HCT-15 it was 4.59 µM; in the test on SF-295, 7.46 µM (inactive); in the test with IGROV-1, 15 µM (inactive); with SF-268, 5.18 µM (inactive). Further, the values for the GI50 with SK-MEL-2, with OVCAR-3 and in the test on K562 were 18.2 µM (inactive), 14.9 µM (inactive) and 3.34 µM (inactive), respectively.

For the compound `Nc1cc(O)c2cc(/N=N/c3ccc(/N=N/c4ccc(/N=N/c5ccc6cc(S(=O)(=O)O)cc(S(=O)(=O)O)c6c5)c5ccccc45)c4cc(S(=O)(=O)O)ccc34)c(S(=O)(=O)O)cc2c1`, the GI50 with HOP-62 is > 100 µM (inactive); in the test on SNB-19, > 100 µM (inactive); with DMS-273 it was 97.1 µM (inactive); in the test with RXF 393 it was > 100 µM (inactive); in the test on KM-20L2, > 10 µM (inactive); with HCC 2998 it was > 100 µM (inactive). Moreover, the GI50 with U-251 was > 100 µM (inactive); in the test with MCF7, > 100 µM (inactive); in the test on HCT-15 it was 42.4 µM; in the test on DLD-1, > 100 µM (inactive); in the test with SF-295 it was > 53.2 µM (inactive); in the test with IGROV-1 it was > 100 µM (inactive). For the same compound, the GI50 was > 100 µM (inactive) with SF-268, > 100 µM (inactive) in the test with SK-MEL-2, 67.6 µM (inactive) with OVCAR-3 and > 31.6 µM (inactive) with K562.

On to `COc1cc(C2c3cc4c(cc3[C@@H](Oc3ccc(F)cc3)C3COC(=O)[C@H]23)OCO4)cc(OC)c1O` (some centres undefined), for which the GI50 was 0.267 µM (active) in the test on HOP-62; 0.337 µM (active) with DMS-273; 0.234 µM (active) in the test on RXF 393; 0.286 µM (active) in the test on KM-20L2; 2.28 µM (inactive) in the test with HCC 2998; 0.365 µM (active) with U-251. For the same compound, the GI50 is 0.434 µM (active) in the test on MCF7; 0.364 µM in the test with HCT-15; 0.656 µM (active) in the test on DLD-1; 0.807 µM (active) in the test with SF-295; 1.32 µM (inactive) in the test with IGROV-1; 0.679 µM (active) in the test with SF-268. In addition, the GI50 was 1.75 µM (inactive) in the test with OVCAR-3 and 0.457 µM (active) with K562.
